# From patent publication US20250277030A1, “ANTI-NAPI2B ANTIBODIES AND METHODS OF USE” (Zymeworks BC Inc., priority 2022, published 2025)
# How the values were obtained:
# cynomolgus NaPi2b = assay: Flow cytometry binding to HEK293-6e cells transfected with cynomolgus NaPi2b (Example 5); settings: transfected HEK293-6e cells
# Procedure: (§1) The binding cross-reactivity of humanized antibody variant v29456 to human, cynomolgus and mouse NaPi2b was assessed by flow cytometry using HEK293-6e transfected cells.
# (§2) Briefly, HEK293-6e cells were transfected for ˜24 hours to transiently express human NaPi2b, cynomolgus or mouse NaPi2b, at 1 μg of DNA per 1 million cells. Following transfection, 50,000 cells per well were seeded in V-bottom 96-well plates and incubated with 200 nM of primary antibody for 18-24 hours at 4° C. to prevent internalization. Post-incubation, cells were washed and stained with anti-Human IgG Fc AF647 conjugate (Jackson Immuno Research Labs, West Grove, PA, Cat. No. 109-605-098, Lot. No. 124868) at 4° C. for 1 hour. Following staining and washing, fluorescence was detected by flow cytometry on BD LSRFortessa™ Cell Analyzer (BD Biosciences, Franklin Lake, NJ) with 10,000 minimum events collected per well. The AF647/APC-A GeoMean (fluorescence signal geometric mean, proportional to anti-Human AF647 binding) was calculated for the live singlet cell population for each primary antibody using FlowJo™ v8 software (BD Biosciences, Franklin Lake, NJ). The Bmax and Kd of each primary antibody were calculated using GraphPad Prism Version 9 (GraphPad Software, San Diego, CA)
# human NaPi2b = target: T1, human NaPi2b (Homo sapiens, UniProt O95436); assay: Flow cytometry binding to HEK293-6e cells transfected with human NaPi2b (Example 5); settings: transfected HEK293-6e cells
# T1 construct: host or cells: HEK293-6e
# T1 sequence (O95436 1-690): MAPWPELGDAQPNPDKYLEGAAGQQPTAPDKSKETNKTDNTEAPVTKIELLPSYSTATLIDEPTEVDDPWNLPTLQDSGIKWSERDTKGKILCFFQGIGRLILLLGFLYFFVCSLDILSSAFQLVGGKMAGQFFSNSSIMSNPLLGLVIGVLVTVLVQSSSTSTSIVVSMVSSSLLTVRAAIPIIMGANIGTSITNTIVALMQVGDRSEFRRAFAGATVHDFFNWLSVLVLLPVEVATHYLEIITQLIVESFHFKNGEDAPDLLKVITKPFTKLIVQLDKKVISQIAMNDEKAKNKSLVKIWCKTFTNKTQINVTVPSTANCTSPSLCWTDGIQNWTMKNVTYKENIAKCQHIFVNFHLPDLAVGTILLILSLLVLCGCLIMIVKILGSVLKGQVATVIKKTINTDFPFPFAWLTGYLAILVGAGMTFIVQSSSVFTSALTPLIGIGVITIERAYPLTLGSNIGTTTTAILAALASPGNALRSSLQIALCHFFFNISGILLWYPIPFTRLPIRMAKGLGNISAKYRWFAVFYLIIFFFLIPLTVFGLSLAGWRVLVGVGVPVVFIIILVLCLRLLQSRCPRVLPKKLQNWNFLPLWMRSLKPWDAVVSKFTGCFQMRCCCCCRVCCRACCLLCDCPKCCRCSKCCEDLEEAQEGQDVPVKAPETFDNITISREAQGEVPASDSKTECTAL
# Procedure: as §1, §2
# HCC-78 cells = assay: Internalization by flow cytometry in HCC-78 cells; format: cell-based, human; settings: antibody 10 nM
# Procedure: Briefly, antibodies were fluorescently labeled by coupling to a Fab fragment AF488 conjugate targeting anti-Human IgG Fe (Jackson Immuno Research Labs, West Grove, PA; Cat. No. 109-547-008) at a 1:1 molar ratio in PBS pH 7.4 (Thermo Fisher Scientific, Waltham, MA; Cat. No. 10010-023), for 24 hours at 4° C. Cells were seeded at 50,000 cells/well in RPMI 1640, ATCC modification (Thermo Fisher Scientific, Waltham, MA) supplemented with 10% fetal bovine serum (Thermo Fisher Scientific, Waltham, MA) in 48-well plates and incubated overnight under standard culturing conditions (37° C./5% CO2) to allow attachment. […] Following incubation, cells were dissociated, washed, and surface AF488 fluorescence was quenched using an anti-AF488 antibody (Life Technologies, Carlsbad, CA; Cat. No. A-11094) at 100 nM for 30 minutes at 4° C. […] (internalized fluorescence) was detected by flow cytometry on a BD LSRFortessa™ Cell Analyzer (BD Biosciences, Franklin Lake, NJ) with 1,000 minimum events collected per well. The AF488/FITC-A GeoMean (fluorescence signal geometric mean, proportional to anti-Human Fab AF488 labelling) was calculated for the live single cell population using FlowJo™ Version 10.8.1 (BD Biosciences, Franklin Lake, NJ) and plotted using GraphPad Prism Version 9 (GraphPad Software, San Diego, CA).
# [1] = target: T2, NaPi2b expressed on IGROV-1 cells (Homo sapiens, UniProt O95436); assay: Cellular binding of antibody and ADCs to IGROV-1 cells by flow cytometry (Example 14)
# T2 construct: IGROV-1 cells express endogenous NaPi2b at a high level; endogenous in cells; host or cells: IGROV-1
# T2 sequence (O95436 1-690): T1 sequence (O95436 1-690)
# Procedure: as §2
# (§3) The ability of ADCs to bind to cells expressing NaPi2b was assessed. […] Binding to endogenous high NaPi2b-expressing cell lines IGROV-1 and HCC-78 was assessed by flow cytometry according to methods described in Example 5.
# [2] = target: T3, NaPi2b expressed on HCC-78 cells (Homo sapiens, UniProt O95436); assay: Cellular binding of antibody and ADCs to HCC-78 cells by flow cytometry (Example 14)
# T3 construct: endogenous in cells; host or cells: HCC-78
# T3 sequence (O95436 1-690): T1 sequence (O95436 1-690)
# Procedure: as §2, §3
# Sequence of cynomolgus NaPi2b (as listed by the source): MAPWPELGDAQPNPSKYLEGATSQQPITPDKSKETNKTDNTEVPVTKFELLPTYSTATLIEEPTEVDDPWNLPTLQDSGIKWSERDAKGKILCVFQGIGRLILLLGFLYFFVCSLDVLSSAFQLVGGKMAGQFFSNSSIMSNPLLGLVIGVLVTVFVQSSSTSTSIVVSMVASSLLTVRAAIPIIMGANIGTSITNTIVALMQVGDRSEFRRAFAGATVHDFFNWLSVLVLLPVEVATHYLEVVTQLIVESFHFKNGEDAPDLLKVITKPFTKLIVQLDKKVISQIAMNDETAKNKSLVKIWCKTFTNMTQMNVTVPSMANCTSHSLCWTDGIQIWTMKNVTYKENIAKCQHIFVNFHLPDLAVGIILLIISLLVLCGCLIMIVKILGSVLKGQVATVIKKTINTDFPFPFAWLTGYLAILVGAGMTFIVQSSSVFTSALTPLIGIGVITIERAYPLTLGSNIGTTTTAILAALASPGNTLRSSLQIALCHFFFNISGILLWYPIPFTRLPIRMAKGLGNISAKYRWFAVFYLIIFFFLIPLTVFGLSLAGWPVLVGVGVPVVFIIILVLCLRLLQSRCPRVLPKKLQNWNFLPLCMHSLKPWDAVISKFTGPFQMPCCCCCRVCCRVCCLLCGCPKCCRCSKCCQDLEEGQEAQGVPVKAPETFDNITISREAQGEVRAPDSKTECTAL
substance,measurement,setting,value
"v22277: anti-RSV antibody palivizumab, negative control; has a heterodimeric Fc [reference compound]","Binding to cynomolgus NaPi2b, in words",cynomolgus NaPi2b,did not bind
same,"Binding to human NaPi2b, in words",human NaPi2b,did not bind
same,Internalized Fluorescence Fold-Over Palivizumab,"HCC-78 cells; HCC-78, 5 hrs",1.0 fold
same,Internalized Fluorescence Fold-Over Palivizumab,"HCC-78 cells; HCC-78, 24 hrs",1.0 fold
same,"Binding to IGROV-1 cells, in words",[1],did not bind
same,"Binding to HCC-78 cells, in words",[2],did not bind
